Assay results: publication PMC7382147, “An effective UFLC–MS/MS method used to study pharmacokinetics of major constituents of Fukeqianjin formula in rat plasma” (Chinese Medicine, 2020)
Like-named read-outs stand apart in the source and are kept apart here.

Columns and labels:
[1] = Ordinary stability of QC samples (room temperature for 8 h); format: physicochemical, rat; conditions: plasma QC, room temperature 8 h
Procedure: (§1) Aliquots of 100 μL plasma samples were mixed with 10 μL I.S. samples (1 μg/mL, in MeOH), then added with 500 μL ACN, respectively, and vortexed for 5 min, centrifugated at 10,000 rpm for 10 min, the supernatants were transferred into clean vials and dried in a vacuum centrifugal concentrator at 1200 rpm, 37 °C. After that, 100 μL ACN was added and ultrasonic (frequency 40 kHz, power 250 W) extracted for 5 min to dissolve the dry residue, vortexed for 1 min and centrifugated at 10,000 rpm for 5 min, 1 μL of each final supernatant was injected into UFLC–MS/MS for analysis.
(§2) Six replicates of low, medium and high concentrations of quality control (QC) samples were used to verify the stabilities under different conditions including: place at room temperature for 8 h, freeze (− 20 °C) and thaw for three times, and store at − 20 °C for 20 days.

[2] = Long-term stability of QC samples (−20 °C for 20 days); format: physicochemical, rat; conditions: plasma QC
Procedure: as §1, §2

[3] = Freeze–thaw stability of QC samples (−20 °C, three times); format: physicochemical, rat; conditions: plasma QC, freeze (−20 °C) and thaw three times
Procedure: as §1, §2

[4] = Pharmacokinetic study in rat plasma after oral administration of FKQJF extract (UFLC–MS/MS); format: in vivo, Sprague-Dawley (SD) rats; conditions: for AUC(0-inf) / AUC(0-t) / Cmax / half-life / MRT last / MRT inf / Tmax: oral FKQJF extract, single dose 3.2 g/kg, mean ± SD; for MRT last: read-out: MRT0→t; for MRT inf: read-out: MRT0→∞
Procedure: as §1
An 8050 UFLC–MS/MS system equipped with LC-30A binary pump, a SIL-30AC autosampler, a SPD-M30A PDA detector, a CTO-20AC column oven, and a 8050 triple quadrupole mass spectrometer with an electrospray ionization source (ESI) was applied to detect and quantify FKQJF compounds in plasma samples. Data were acquired and processed with the software LabSolution (Ver. 5.6).
A Kinetex XB-C18 HPLC column (100 × 2.1 mm, 2.6 μm) linked with an equivalent guard column was used for chromatographic separation. The aqueous phase contained 0.2% formic acid was used as mobile phase A, and organic phase ACN as mobile phase B. The gradient elution method using in this program was: 3–5 min, 28–31% B; 5–7 min, 31–34% B; 7–9 min, 34–65% B; 9–10 min, 65–95% B; 10–11.5 min, 95% B. The flow rate of mobile phase, column temperature and autosampler temperature was 0.4 mL/min, 30 °C and 4 °C, respectively. The injection volume of each sample was set as 1 μL. The main MS spectrum parameters were set as follows: the flow rate of drying gas (N2) was 10.0 L/min; the atomized gas was 3.0 L/min and the heating gas flow rate was 10.0 L/min. The main temperatures of interface, desolvation and heat block was 300 °C, 250 °C and 400 °C, respectively. And, the interface and detector voltage were 3 kV and 1.8 kV.
Rats were divided into a blank group and a FKQJF administration group (6 rats for each), and fasted for 24 h. Each rat of the administration group was given FKQJF extract suspension at a single dose of 3.2 g FKQJF/kg body weight through oral administration in parallel. Blood samples (0.25 mL) were gathered from the orbital venous plexus of each rat, with FKQJF group gathered at 14 serial timepoints (6 rats for each) as 0.083 h, 0.16 h, 0.33 h, 0.5 h, 0.75 h, 1.0 h, 1.5 h, 2 h, 3 h, 4 h, 6 h, 8 h, 12 h and 24 h after drug administration. The blood samples were centrifugated at 6000g for 10 min to isolate plasma and stored at − 20 °C for further analysis.
Data were analyzed using the Drug and Statistics (DAS) Software version 2.0 (DAS 2.0, Mathematical Pharmacology Professional Committee of China, Shanghai, China). The non-compartmental mode was applied to obtain the following PK parameters: area under the plasma concentration–time curve from time zero to the time of last quantifiable concentration (AUC0→t) and area under the plasma concentration–time curve to time infinity (AUC0→∞), the elimination half-life (t1/2), mean retention time to last sampling time (MRT0→t) and mean retention time to infinity (MRT0→∞). The maximum plasma concentration (Cmax) and the time to maximum concentration (Tmax) were observed directly from the concentration–time (C–T) curves and measured data. All data are presented as mean ± SD.

[5] = oral FKQJF extract 3.2 g/kg, post dose

Row | SMILES | Ordinary stability Mean ([1]; spiked 300 ng/mL) | Long-term stability Mean ([2]; spiked 300 ng/mL) | Freeze–thaw stability Mean ([3]; spiked 300 ng/mL) | AUC(0-inf) ([4]; Sprague-Dawley) | AUC(0-t) ([4]; Sprague-Dawley) | Cmax ([4]; Sprague-Dawley) | half-life ([4]; Sprague-Dawley) | MRT last ([4]; Sprague-Dawley) | MRT inf ([4]; Sprague-Dawley) | Tmax ([4]; Sprague-Dawley, read-out: Tmax) | shape of the plasma concentration–time curve ([4]; oral FKQJF extract 3.2 g/kg) | Ordinary stability Mean ([1]; spiked 50 ng/mL) | Ordinary stability Mean ([1]; spiked 250 ng/mL) | Ordinary stability Mean ([1]; spiked 500 ng/mL) | Long-term stability Mean ([2]; spiked 50 ng/mL) | Long-term stability Mean ([2]; spiked 250 ng/mL) | Long-term stability Mean ([2]; spiked 500 ng/mL) | Freeze–thaw stability Mean ([3]; spiked 50 ng/mL) | Freeze–thaw stability Mean ([3]; spiked 250 ng/mL) | Freeze–thaw stability Mean ([3]; spiked 500 ng/mL) | other results
1 | C=C1CC[C@@H]2[C@](C)(CO[C@@H]3O[C@H](CO)[C@@H](O)[C@H](O)[C@H]3O)CCC[C@@]2(C)[C@@H]1CCC1=CCOC1=O [Analyte 5, neoandrographolide] | 103.80% | 97.44% | 80.22% | 505 ± 109 ng·h/mL | 344 ± 43.1 ng·h/mL | 104 ± 14.9 ng/mL | 3.89 ± 0.85 h | 3.51 ± 0.24 h | 7.55 ± 1.93 h | 1 ± 0.43 h | double-peaks |  |  |  |  |  |  |  |  |  | Ordinary stability Mean ([1]; spiked 60 ng/mL): 81.32%; Ordinary stability Mean ([1]; spiked 600 ng/mL): 94.88%; Long-term stability Mean ([2]; spiked 60 ng/mL): 113.28%; Long-term stability Mean ([2]; spiked 600 ng/mL): 82.61%; Freeze–thaw stability Mean ([3]; spiked 60 ng/mL): 109.12%; Freeze–thaw stability Mean ([3]; spiked 600 ng/mL): 113.31%; time of first peak of the concentration–time curve [4, 5]: 0 to 1 h; time of second peak of the concentration–time curve [4, 5]: 1.5 to 3 h
2 | COc1cc(O)c2c(=O)cc(-c3ccccc3)oc2c1OC [Analyte 19, 7-O-methylwogonin] | 96.04% | 85.96% | 94.97% | 252 ± 62.5 ng·h/mL | 249 ± 65.5 ng·h/mL | 169 ± 73.5 ng/mL | 1.1 ± 0.47 h | 2.44 ± 0.12 h | 2.55 ± 0.21 h | 2 h |  |  |  |  |  |  |  |  |  |  | Ordinary stability Mean ([1]; spiked 10 ng/mL): 96.33%; Ordinary stability Mean ([1]; spiked 150 ng/mL): 80.66%; Long-term stability Mean ([2]; spiked 10 ng/mL): 116.14%; Long-term stability Mean ([2]; spiked 150 ng/mL): 84.29%; Freeze–thaw stability Mean ([3]; spiked 10 ng/mL): 103.66%; Freeze–thaw stability Mean ([3]; spiked 150 ng/mL): 111.86%
3 | COc1ccc(-c2coc3cc(O[C@@H]4O[C@H](CO)[C@@H](O)[C@H](O)[C@H]4O)ccc3c2=O)cc1 [Analyte 10, ononin] |  |  |  | 375 ± 153 ng·h/mL | 370 ± 156 ng·h/mL | 192 ± 32 ng/mL | 1.64 ± 0.52 h | 2.54 ± 1.12 h | 3.13 ± 1.66 h | 1.33 ± 0.58 h | double-peaks | 95.59% | 82.57% | 103.90% | 95.03% | 81.88% | 107.95% | 118.81% | 102.95% | 81.68% | 
4 | O=C1C[C@@H](c2ccc(O)cc2)Oc2cc(O)cc(O)c21 [Analyte 14, naringenin] |  |  |  | 206 ± 58.7 ng·h/mL | 144 ± 16.5 ng·h/mL | 67.7 ± 27.6 ng/mL | 12.1 ± 9.32 h | 6.67 ± 1.42 h | 17 ± 8.17 h |  |  | 80.39% | 92.68% | 101.11% | 91.66% | 103.10% | 99.51% | 88.34% | 116.86% | 84.71% | Tmax [4]: 2.00 ± 0.00 h
5 | O=Cc1ccc2n1C[C@@]1(C[C@H](O)[C@@H](CO)O1)OC2 [Analyte 4, 9-epi-acortatarin A] |  |  |  | 92.6 ± 21.4 ng·h/mL | 80.5 ± 9.64 ng·h/mL | 46.8 ± 6.78 ng/mL | 2.2 ± 1.24 h | 2.38 ± 0.24 h | 3.25 ± 0.41 h | 1 ± 0.5 h |  | 108.94% | 116.00% | 84.20% | 118.34% | 81.20% | 104.85% | 91.90% | 107.25% | 102.81% | 
6 | COc1cc(O[C@@H]2O[C@H](CO)[C@@H](O)[C@H](O)[C@H]2O)cc(OC)c1OC [Analyte 1, 3,4,5-trimethoxyphenol-1-O-β-D-glucopyranoside] |  |  |  | 115 ± 15.8 ng·h/mL | 109 ± 11.4 ng·h/mL | 48 ± 4.41 ng/mL | 1.79 ± 0.44 h | 2.6 ± 0.12 h | 3.37 ± 0.26 h | 2 h | double-peaks | 80.92% | 104.48% | 117.94% | 86.86% | 89.00% | 103.76% | 112.34% | 99.57% | 106.56% | 
7 | COc1cc(/C=C/C(=O)O)ccc1O [Analyte 6, trans-ferulic acid] | 109.93% | 91.27% | 102.20% | 1010 ± 558 ng·h/mL | 466 ± 51.9 ng·h/mL | 79.8 ± 9.43 ng/mL | 10.5 ± 6.63 h | 9.19 ± 1 h | 13.9 ± 9.49 h | 0.08 h | double-peaks |  |  |  |  |  |  |  |  |  | Ordinary stability Mean ([1]; spiked 60 ng/mL): 88.22%; Ordinary stability Mean ([1]; spiked 600 ng/mL): 91.44%; Long-term stability Mean ([2]; spiked 60 ng/mL): 83.07%; Long-term stability Mean ([2]; spiked 600 ng/mL): 102.00%; Freeze–thaw stability Mean ([3]; spiked 60 ng/mL): 115.63%; Freeze–thaw stability Mean ([3]; spiked 600 ng/mL): 88.33%
8 | COc1ccccc1-c1cc(=O)c2c(O)cc(OC)c(OC)c2o1 [Analyte 16, panicolin] |  |  |  | 251 ± 97.6 ng·h/mL | 177 ± 17.1 ng·h/mL | 31.4 ± 6.94 ng/mL | 12.6 ± 12.7 h | 8.68 ± 1.17 h | 20.1 ± 5.01 h | 2 h | double-peaks | 83.35% | 92.98% | 88.55% | 105.80% | 89.82% | 95.48% | 105.76% | 108.03% | 95.34% | 
